Reference: patent US20220281779A1, “Fertiliser and/or Soil Improver Composition, Method of Preparation and Method of Use” (Veratin Pty Ltd, priority 2016, published 2022)

Tested on: Sceptre wheat
Experiment: Field wheat trial
Type: in vivo
Conditions: total N applied: nV-2 17 units, Flexi-N and Urea 59 units
Procedure: A fertiliser and/or soil improver composition (nV-2) is prepared using a method exemplified in Example III, with a sheep wool material (uncleaned and/or containing the fat layer) being deconstructed using a eutectic melt comprising urea:choline chloride at a ratio in the range of from about 7.5:1 to about 4:1, and with the temperature for the deconstruction of wool being in a range of approximately 145-165° C. (or more specifically approximately 145-160° C.). The composition (nV-2) was also prepared at a weight to volume ratio of the wool to eutectic melt in the range of from about 1 g:1 ml to about 1 g:25 ml.
The resultant fertiliser and/or soil improver composition (nV-2) comprises 35% (w/v) of total N (nitrogen) and has pH in the range of pH 5.5-6.5. For the field application, the composition nV-2 was mixed with water (as a carrier) in a ratio of approximately 52 L water to approximately 48 L of nV-2.
The field wheat trial was established as a randomised complete block of 5 treatments and 4 replicates in a single bank with each plot 12 meter long by 2 meter wide.
The effectiveness of the fertiliser and/or soil improver composition nV-2 according to the present invention on plant growth (wheat in this instance) and/or as an organic nitrogen nutrient source, is compared with a commercial inorganic fertiliser (Flexi-N, which is a commercially available fertiliser distributed by the Australian Company CSBP and contains three forms of N—urea, ammonium and nitrate, with a total N concentration of 42%), and with Urea alone (at 46% total N). […]
At 41 and 75 days after sowing, the NDVI was recorded for each plot using a hand-held green-seeker.
At 209 days after sowing, the trial was plot harvested for yield comparisons with grain samples collected from each plot and analysed for quality (protein, moisture, specific weight and screenings) according to industry standards.
All data collected was statistically analysed with the proprietary agricultural field research program ARM® using an Analysis of Variance at a confidence limit of 95%.

NC(N)=O [Urea]
Average crop yield (harvest 209 days after sowing): 7.848
Average crop yield/Unit of N: 0.133
Net crop yield/unit of N: 0.009
